These results are taken from patent US7163940B2, “Pyrazolopyridinyl pyrimidine therapeutic compounds” (SmithKline Beecham Corporation, priority 2000, dated 2007).

The structures appear in SMILES notation.

The test system of the first assay is HSV-1. Description: HSV-1 replication in infected Vero 76 cells, viral DNA hybridization capture assay. The assay is classed as cell-based. Conditions: HSV-1, Vero 76 cells, MOI=0.001, 40–48 hours incubation. The method, then:
Vero 76 cells were maintained in MEM with Earle's salts, L-glutamine, 8% FBS (Hyclone, A-1111-L) and 100 units/mL Penicillin-100 μg/mL Streptomycin. For assay conditions, FBS was reduced to 2%. Cells are seeded into 96-well tissue culture plates at a density of 5×10^4 cells/well after being incubated for 45 min at 37° C. in the presence of HSV-1 or HSV-2 (MOI=0.001). Test compounds are added to the wells and the plates are incubated at 37° C. for 40–48 hours. Cell lysates are prepared as follows: media was removed and replaced with 150 μL/well 0.2 N NaOH with 1% Igepal CA 630 or NP-40. Plates were incubated up to 14 days at room temperature in a humidified chamber to prevent evaporation. • (b) Preparation of Detection DNA.
For the detection probe, a gel-purified, digoxigenin-labeled, […] PCR fragment of the HSV UL-15 sequence was utilized. PCR conditions included 0.5 μM primers, 180 μM dTP, 20 μM dUTP-digoxigenin (Boehringer Mannheim 1558706), 200 μM each of dATP, dCTP, and dGTP, 1×PCR Buffer II (Perkin Elmer), 2.5 mM MgCl2, 0.025 units/μL of AmpliTaq Gold polymerase (Perkin Elmer), and 5 ng of gel-purified HSV DNA per 100 μL. Extension conditions were 10 min at 95° C., followed by 30 cycles of 95° C. for 1 min, 55° C. for 30 sec, and 72° C. for 2 min. The amplification was completed with a 10-min incubation at 72° C. Primers were selected to amplify a 728 bp probe spanning a section of the HSV1 UL15 open reading frame (nucleotides 249–977). Single-stranded transcripts were purified with Promega M13 Wizard kits. The final product was mixed 1:1 with a mixture of 6 M GuSCN, 100 mM EDTA and 200 μg/mL herring sperm DNA and stored at 4° C. • (c) Preparation of Capture Plates.
The capture DNA plasmid (HSV UL13 region in pUC) was linearized by cutting with Xba I, denatured for 15 min at 95° C. and diluted immediately into Reacti-Bind DNA Coating Solution (Pierce, 17250, diluted 1:1 with TE buffer, pH 8) at 1 ng/μL 75 μL/well were added to Corning (#3922 or 9690) white 96-well plates and incubated at room temperature for at least 4 hrs before washing twice with 300 μL/well 0.2×SSC/0.05% Tween-20 (SSC/T buffer). The plates were then incubated overnight at room temperature with 150 μL/well 0.2 N NaOH, 1% IGEPAL and 10 μg/mL herring sperm DNA. • (d) Hybridization.
Twenty-seven (27) μL of cell lysate was combined with 45 μL of hybridization solution (final concentration: 3M GuSCN, 50 mM EDTA, 100 μg/ml salmon sperm DNA, 5× Denhardt's solution, 0.25×APE, and 5 ng of the digoxigenin-labeled detection probe). APE is 1.5 M NH4-acetate, 0.15 M ammonium phosphate, and 5 mM EDTA adjusted to pH 6.0. Mineral oil (50 μL) was added to prevent evaporation. The hybridization plates were incubated at 95° C. for 10 minutes to denature the DNA, then incubated at 42° C. overnight. The wells were washed 6× with 300 μL/well SSC/T buffer then incubated with 75 μL/well anti-digoxigenin-HRP-conjugated antibody (Boehringer Mannheim 1207733, 1:5000 in TE) for 30 min at room temperature. The wells were washed 6× with 300 μL/well with PBS/0.05% Tween-20 before 75 μL/well SuperSignal LBA substrate (Pierce) was added. The plates were incubated at room temperature for 30 minutes and chemiluminescence was measured in a Wallac Victor reader. • e) Results.
The following results were obtained for HSV-1.
As to `CCCCNc1nccc(-c2c(-c3ccc(F)cc3)nn3c(NCCC)cccc23)n1` [Example 55, 3-[2-(Butylamino)-4-pyrimidinyl]-2-(4-fluorophenyl)-N-propylpyrazolo[1,5-α]pyridin-7-amine], the IC50 (commonly the midpoint of a concentration-inhibition curve) was determined as 1.2 µM.

Still in this assay, the particulars now being: Human alphaherpesvirus 1, Vero 76, HSV-1, Vero 76 cells, MOI=0.001, 40–48 hours incubation.
`Cc1cnc(NC2CCCC2)nc1-c1c(-c2ccc(F)cc2)nn2c(NC3CCCC3)cccc12` [Example 53, N-Cyclopentyl-3-[2-(cyclopentylamino)-5-methyl-4-pyrimidinyl]-2-(4-fluorophenyl)pyrazolo[1,5-α]pyridin-7-amine] had an IC50 of 1 µM.

`C=CCNc1cccc2c(-c3ccnc(NCCCC)n3)c(-c3ccc(F)cc3)nn12` [Example 54, N-Allyl-3-[2-(butylamino)-4-pyrimidinyl]-2-(4-fluorophenyl)pyrazolo[1,5-α]pyridin-7-amine] showed an IC50 of 0.5 µM.

For `CN1CCCC1CCNc1cccc2c(-c3ccncc3)c(-c3ccc(F)cc3)nn12` (stereo not drawn) [Example 57, N-[2-(4-Fluorophenyl)-3-(4-pyridinyl)pyrazolo[1,5-α]pyridin-7-yl]-N-[2-(1-methyl-2-pyrrolidinyl)ethyl]amine], it took 0.7 µM to reach half-maximal inhibition (IC50).

The molecule `CNc1cccc2c(-c3ccncc3)c(-c3ccc(F)cc3)nn12` [Example 58, 2-(4-Fluorophenyl)-N-methyl-3-(4-pyridinyl)pyrazolo[1,5-α]pyridin-7-amine] showed an IC50 of 10.5 µM.

The molecule `CCN(CC)c1cccc2c(-c3ccncc3)c(-c3ccc(F)cc3)nn12` [Example 59, N,N-Diethyl-2-(4-fluorophenyl)-3-(4-pyridinyl)pyrazolo[1,5-α]pyridin-7-amine] came in with an IC50 of 4 µM.

On to `Fc1ccc(-c2nn3c(Br)cccc3c2-c2ccncc2)cc1` [Example 61, 7-Bromo-2-(4-fluorophenyl)-3-pyridin-4-ylpyrazolo[1,5-α]pyridine], for which the IC50 is more than 20 µM.

In turn, `CCCCNc1cccc2c(-c3ccnc(OCC(F)(F)F)n3)c(-c3ccc(F)cc3)nn12` [Example 68, N-Butyl-2-(4-fluorophenyl)-3-[2-(2,2,2-trifluoroethoxy)pyrimidin-4-yl]pyrazolo[1,5-α]pyridin-7-amine] had an IC50 of more than 20 µM.

Consider `Fc1ccc(-c2nn3c(N4CCCC4)cccc3c2-c2ccnc(N3CCCC3)n2)cc1` [Example 69, 2-(4-Fluorophenyl)-7-pyrrolidin-1-yl-3-(2-pyrrolidin-1-ylpyrimidin-4-yl)pyrazolo[1,5-α]pyridine], for which half-maximal inhibition (IC50) was put at 4.2 µM.

`Cc1cc(-c2c(-c3ccc(F)cc3)nn3c(N)cccc23)nc(NC2CCCC2)n1` [Example 72, 3-[2-(Cyclopentylamino)-6-methylpyrimidin-4-yl]-2-(4-fluorophenyl)pyrazolo[1,5-α]pyridin-7-amine] displayed an IC50 of 4.4 µM.

In turn, `Fc1ccc(-c2nn3c(Cl)cccc3c2-c2ccnc(-c3ccccc3)n2)cc1` [Example 73, 7-Chloro-2-(4-fluorophenyl)-3-(2-phenylpyrimidin-4-yl)pyrazolo[1,5-α]pyridine] had an IC50 of more than 20 µM.

On to `O=C(NC1CCCC1)c1cc(-c2c(-c3ccc(F)cc3)nn3c(Cl)cccc23)nc(NC2CCCC2)n1` [Example 74, 6-[7-Chloro-2-(4-fluorophenyl)pyrazolo[1,5-α]pyridin-3-yl]-N-cyclopentyl-2-(cyclopentylamino)pyrimidine-4-carboxamide], for which the half-inhibitory concentration (IC50) is more than 20 µM.

As for `O=C(NC1CCCC1)c1cc(-c2c(-c3ccc(F)cc3)nn3c(NC4CCCC4)cccc23)nc(NC2CCCC2)n1` [Example 75, N-Cyclopentyl-2-(cyclopentylamino)-6-[7-(cyclopentylamino)-2-(4-fluorophenyl)pyrazolo[1,5-α]pyridin-3-yl]pyrimidine-4-carboxamide], the IC50 was more than 20 µM.

Consider `Fc1ccc(-c2nn3c(Cl)cccc3c2-c2ccnc(C3CC3)n2)cc1` [Example 76, 7-Chloro-3-(2-cyclopropylpyrimidin-4-yl)-2-(4-fluorophenyl)pyrazolo[1,5-α]pyridine], for which the half-inhibitory concentration (IC50) is more than 20 µM.
